Assay results: PMC7956476, “Quinoline Functionalized Schiff Base Silver (I) Complexes: Interactions with Biomolecules and In Vitro Cytotoxicity, Antioxidant and Antimicrobial Activities” (Molecules, 2021)
Values after ≈ are worked out from the molar mass of the structure shown. Read-outs that look alike come from different tables or passages of the source.

How the values were obtained:
[1] = test system: human embryonic kidney 293 (HEK293); assay: Cytotoxicity assay (CellTiter 96 AQueous One Solution, 72 h); type: cell-based; settings: normal cell line, n = 3, read-out: EC50 ± Std Dev (µM) HEK293
Procedure: (§1) In vitro cell viability with cultured cells is a method commonly used for cytotoxicity activities of potential anticancer compounds due to reduced cost speed, and potential for automation, and tests using human cells other than some in vivo animal tests. […] The cytotoxicity assay was conducted as per the standard method and as described by Abrahams et al. 2018 [111]. […] The plate was then incubated for 72 h at 37 °C and 5% CO2. To each well, 20 µL CellTiter 96 AQueous One Solution (Promega, Madison, WI, USA) was added and the plates were incubated for 4 h as previously described. Thereafter, absorbance was read at 490 nm on a multiplate reader (Molecular Devices, San Jose, CA, USA). […] The values recorded are averages of at least three separate experiments (n = 3).

[2] = test system: neuronal cancer cell line (SHSY5Y); assay: as above; type: cell-based, human
Procedure: as §1

[3] = test system: breast cancer cell line (MDA-MB231); assay: as above; type: cell-based, human
Procedure: as §1

[4] = test system: cervical cancer cell line (HELA); assay: as above; type: cell-based, human
Procedure: as §1

[5] = test system: Escherichia coli ATCC 25922; assay: Minimum inhibitory concentration (MIC), spotting on Müeller–Hinton agar; type: cell-based; settings: Gram − Ve; E. coli; 37 °C, 18 h
[6] = test system: Staphylococcus aureus ATCC 25923; assay: as above; type: cell-based; settings: Gram + Ve; S. aureus; 37 °C, 18 h
[7] = test system: Salmonella typhimurium ATCC 14026; assay: as above; type: cell-based; settings: Gram − Ve; S. typhi; 37 °C, 18 h
[8] = test system: Staphylococcus aureus ATCC 700699 (methicillin-resistant); assay: as above; type: cell-based; settings: Gram + Ve; methicillin-resistant S. aureus; 37 °C, 18 h
[9] = test system: Klebsiella pneumoniae ATCC 31488; assay: as above; type: cell-based; settings: versus the standard (0.8 µg/mL)
CT-DNA-EB adduct = assay: Fluorescence competitive displacement of ethidium bromide from CT-DNA; type: binding, calf; settings: for CT-DNA-EB-Complex Ksv (M^−1) × 10^4: Stern–Volmer quenching constant, EB displacement, 25 °C; for CT-DNA-EB-Complex Kq (M^−1S^−1) × 10^12: bimolecular quenching constant, Ksv = Kqτo, τo 10^−8 s; for CT-DNA-EB-Complex Kbin (M^−1) × 10^5: binding constant from double-logarithmic plot
From the text: The Stern–Volmer plot approach was used based on the fact that the Stern–Volmer plots for Q1–Q15 (Figure 5c), were linear an indication of only one mechanism for the quenching fluorescence, i.e., either dynamic or static. […] (1) Ksv=Kqτo where Ksv, Kq, and τo represent Stern–Volmer quenching constant, bimolecular quenching constant, and an average lifetime of the fluorophore in the absence of the quencher, respectively. τₒ normally takes about 10^−8 s in biomacromolecules.
The double-logarithmic Equation (2) was used in determining the binding constant of complexes Q1–Q15 and CT-DNA. (2) logFo−F/F=logKb+n logQ
A competitive displacement study was carried out using fluorescence spectroscopy between CT-DNA pre-treated with ethidium bromide (EB) and complexes Q1–Q15 to establish the complexes′ actual mode of binding to CT-DNA. […] The competitive luminescence displacement assay was done using a modified method. Pre-treated 15 µM solution of EB with 15 µM of CT-DNA was prepared in a phosphate buffer of pH 7.2 and left to equilibrate for 30 min. Keeping CT-DNA-EB concentrations constant, different concentrations (0–20 µM) of the complexes were added at 8 min incubation interval at room temperature. The fluorescence quenching ability of CT-DNA bound EB by the complexes were recorded in the wavelength range of 530–700 nm with an excitation wavelength at 525 nm at 25 °C. (6) Fo/F=1+KSVQ=1+KqτoQ
A Stern–Volmer (Equation (6)) was used to evaluate the CT-DNA-EB fluorescence quenching of the complexes. Where Fo and F denote the relative fluorescence intensities of CT-DNA in the absence and presence of the quencher, Ksv, Stern–Volmer quenching constant, [Q], quencher concentration, Kq, bimolecular quenching constant and τo, average lifetime of the fluorophore in the absence of the quencher which is typically equal to 10^−8 s in biomacromolecules.

[10] = biological target: bovine serum albumin (BSA) (Bos taurus, UniProt P02769); assay: Albumin binding by absorption spectroscopy titration
From the text: Bovine serum albumin (BSA) was used as the protein standard in this study because of its close resemblance to human serum albumin (HSA), its stability, high solubility, neutrality in many biochemical reactions and low cost. In protein binding study, absorption spectroscopy titration is a known method used in studying the conformational changes in proteins, and this protein is characterized by an intense absorbance peak at 280 nm depicting the microenvironment around tyrosine and tryptophan residue polarity.
The absorbance assay of albumin binding is a very simple method used in identifying the conformational changes in protein. […] A stock solution of bovine serum albumin (BSA) was prepared by dissolving an appropriate amount of BSA in phosphate buffer saline solution (pH 7.2) under constant stirring for 1 h at 25 °C. It was kept at 4 °C and used within four days. […] The stock solution of the complex was prepared by dissolving 1 mmol of the complexes in DMSO. The absorption titration assay was done by adding different concentrations (0–10 µM) of the complexes to a constant BSA concentration (6 µM). The sample solution was incubated after each addition of the concentrations for 10 min at 25 °C before recording the absorbance at λmax 280 nm.

[11] = Ferric reducing antioxidant power (FRAP) assay; type: biochemical; settings: done in triplicate
calf thymus DNA (CT-DNA) = assay: CT-DNA electronic absorption titration (Wolfe–Shimer); type: binding; settings: intrinsic binding constant, absorption titration, PBS pH 7.2
[12] = test system: Pseudomonas aeruginosa ATCC 27853; set-up: method as in doi:10.1016/j.poly.2019.06.038; settings: standard; P. aeruginosa; cited from earlier work
[13] = test system: Staphylococcus aureus ATCC 25923; set-up: method as in doi:10.1016/j.poly.2019.06.038; settings: standard; S. aureus; cited from earlier work
[14] = test system: Staphylococcus aureus ATCC 700699 (methicillin-resistant); set-up: method as in doi:10.1016/j.poly.2019.06.038; settings: standard; cited from earlier work
[15] = test system: Escherichia coli ATCC 25922; set-up: method as in doi:10.1016/j.poly.2019.06.038; settings: standard; E. coli; cited from earlier work
[16] = test system: Salmonella typhimurium ATCC 14026; settings: standard; S. typhi; cited from earlier work
[17] = test system: Pseudomonas aeruginosa ATCC 27853; assay: Minimum inhibitory concentration (MIC), spotting on Müeller–Hinton agar; type: cell-based; settings: Gram − Ve; P. aeruginosa; 37 °C, 18 h

Sequence of bovine serum albumin (BSA) (P02769 25-607): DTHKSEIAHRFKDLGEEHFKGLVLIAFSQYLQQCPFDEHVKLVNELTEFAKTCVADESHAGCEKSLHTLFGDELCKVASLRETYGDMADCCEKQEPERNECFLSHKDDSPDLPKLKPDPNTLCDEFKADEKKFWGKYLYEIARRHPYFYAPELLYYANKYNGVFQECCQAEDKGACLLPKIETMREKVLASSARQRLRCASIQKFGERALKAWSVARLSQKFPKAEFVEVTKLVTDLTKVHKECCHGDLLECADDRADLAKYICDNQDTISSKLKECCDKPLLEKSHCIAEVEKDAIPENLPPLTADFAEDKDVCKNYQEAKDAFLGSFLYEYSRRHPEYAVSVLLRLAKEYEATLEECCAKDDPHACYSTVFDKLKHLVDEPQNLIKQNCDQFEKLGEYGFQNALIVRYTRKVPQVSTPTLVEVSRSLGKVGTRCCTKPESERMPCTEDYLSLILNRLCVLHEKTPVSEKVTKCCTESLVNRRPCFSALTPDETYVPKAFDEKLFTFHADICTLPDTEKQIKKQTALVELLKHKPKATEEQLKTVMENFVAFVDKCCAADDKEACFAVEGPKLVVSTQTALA

Compound | Minimum inhibitory concentration, EC [5] [µg/mL] | Minimum inhibitory concentration, SA [6] [µg/mL] | Minimum inhibitory concentration, ST [7] [µg/mL] | Minimum inhibitory concentration, MRSA [8] [µg/mL] | activity times higher than the standard against K. pneumoniae [9] [times] | CT-DNA-EB-Complex Ksv (M^−1) × 10^4 (CT-DNA-EB adduct) | CT-DNA-EB-Complex Kq (M^−1S^−1) × 10^12 (CT-DNA-EB adduct) | CT-DNA-EB-Complex Kbin (M^−1) × 10^5 (CT-DNA-EB adduct) | Protein-Complex Kb (M^−1) × 10^4 [10] | Antioxidant (IC50 mg/mL) FRAP [11] [mg/mL] | CT-DNA-Cmp. Kb (M^−1) × 10^5 (calf thymus DNA (CT-DNA)) | also measured
N.N.[Cl][Pt][Cl] [Cisplatin, cisplatin, reference compound] |  |  |  |  |  |  |  |  |  |  |  | EC50 [1]: 14.2 ± 3.8 µM; EC50 ([2]; 72 h, n = 3, read-out: EC50 ± Std Dev (µM) SHSY5Y): 19.7 ± 3.77 µM; Selectivity Index (SI) SHSY5Y ([2]; EC50 in HEK293 over EC50 in SHSY5Y): 0.72; EC50 ([3]; 72 h, n = 3, read-out: EC50 ± Std Dev (µM) MDA-MB231): 22.7 ± 4.89 µM; Selectivity Index (SI) MDA-MB231 ([3]; EC50 in HEK293 over EC50 in MDA-MB231): 0.63; EC50 ([4]; 72 h, n = 3, read-out: EC50 ± Std Dev (µM) HELA): > 50 µM; Selectivity Index (SI) HELA ([4]; EC50 in HEK293 over EC50 in HELA): 0.28
C(=NCc1cccs1)c1ccc2ccccc2n1.C(=NCc1cccs1)c1ccc2ccccc2n1.O=[N+]([O-])[O-].[Ag+] [Complex Q5, [Ag(L5)2]NO3] | 1.6 | 50 | 12.5 | 100 | 32 | 2.31 (M^−1) × 10^4 | 2.31 (M^−1S^−1) × 10^12 | 1.03 (M^−1) × 10^5 | 5.95 (M^−1) × 10^4 | 2.04 ± 0.0032 | 4.00 (M^−1) × 10^5 | 
O=C(O)c1cn(C2CC2)c2cc(N3CCNCC3)c(F)cc2c1=O [Ciprofloxacin] |  |  |  |  |  |  |  |  |  |  |  | Minimum inhibitory concentration, PA [12]: 0.2 µg/mL (≈ 0.604 µM); Minimum inhibitory concentration, SA [13]: 25 µg/mL (≈ 75.4 µM); Minimum inhibitory concentration, MRSA [14]: 25 µg/mL (≈ 75.4 µM); Minimum inhibitory concentration, EC [15]: 1.6 µg/mL (≈ 4.83 µM); Minimum inhibitory concentration, ST [16]: 0.4 µg/mL (≈ 1.21 µM)
Clc1ccc(N=Cc2ccc3ccccc3n2)cc1.Clc1ccc(N=Cc2ccc3ccccc3n2)cc1.[Ag+].[O-][Cl+3]([O-])([O-])[O-] [Complex Q8, [Ag(L3)2]ClO4] | 1.6 | 50 | 25 | 25 | 64 | 3.98 (M^−1) × 10^4 | 3.98 (M^−1S^−1) × 10^12 | 1.02 (M^−1) × 10^5 | 9.48 (M^−1) × 10^4 | 3.27 ± 0.093 | 30.0 (M^−1) × 10^5 | Minimum inhibitory concentration, PA [17]: 0.1 µg/mL
